Experimental data reported in patent publication US12617773B2, “Azetidin-3-ylmethanol derivatives as CCR6 receptor modulators” (Idorsia Pharmaceuticals Ltd, priority 2020, dated 2026).
Read-outs that look alike come from different tables or passages of the source.

Target: T1, human CCR6 (Homo sapiens, UniProt P51684)
T1 construct: expressed in transfected cells; host or cells: HEK-293
T1 sequence (P51684 1-374): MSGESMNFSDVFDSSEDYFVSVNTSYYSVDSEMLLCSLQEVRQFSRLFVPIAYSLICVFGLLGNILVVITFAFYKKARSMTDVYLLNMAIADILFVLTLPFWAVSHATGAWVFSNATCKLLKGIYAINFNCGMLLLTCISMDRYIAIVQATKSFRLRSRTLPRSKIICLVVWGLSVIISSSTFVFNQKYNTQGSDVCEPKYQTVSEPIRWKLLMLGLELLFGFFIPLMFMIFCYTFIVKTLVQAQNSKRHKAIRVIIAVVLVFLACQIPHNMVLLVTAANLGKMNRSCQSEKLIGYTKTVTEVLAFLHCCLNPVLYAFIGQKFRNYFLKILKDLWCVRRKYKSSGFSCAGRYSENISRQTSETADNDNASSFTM
Experiment: FLIPR assay (inhibition of CCL20-induced calcium signal)
Format: cell-based
Conditions: HEK-293 cells expressing human CCR6, mean values where determined several times
Procedure, shortened: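 Dye-loaded HEK-293 cells expressing human CCR6 were preincubated with compound for 30 min at room temperature in the dark, then challenged with 10 nM CCL20 (final). Fluorescence was tracked on FLIPR, and baseline-subtracted peak emission over base after agonist addition gave inhibition dose-response curves for IC50.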

SMILES	IC50 (read-out: FLIPR IC50) [nM]	IC50 (FLIPR IC50 (nM)) [nM]
COC(C)(C)c1nc(-c2cncc([C@@](O)(c3ccc(C(C)C)cc3)C3(C)CN(C)C3)c2)no1 [Example 118]	43.1	–
CC(C)c1ccc([C@](O)(c2cncc(-c3noc([C@H](O)C4CCCCC4)n3)c2)C2(C)CN(C)C2)cc1 [Example 119]	20.5	–
CC(C)c1ccc([C@](O)(c2cncc(-c3noc(C4(O)CC4)n3)c2)C2(C)CN(C)C2)cc1 [Example 120]	59.2	–
CC(C)c1ccc([C@](O)(c2cncc(-c3noc(C(C)(C)O)n3)c2)C2(C)CN(C)C2)cc1 [Example 121]	57.7	–
CC(C)c1ccc([C@](O)(c2cncc(-c3noc(C4(O)CCCC4)n3)c2)C2(C)CN(C)C2)cc1 [Example 122]	42.1	–
CC(C)c1ccc([C@](O)(c2cncc(-c3noc(C4CC(O)C4)n3)c2)C2(C)CN(C)C2)cc1 (stereo partly drawn) [Example 123]	46.9	–
CC(C)c1ccc([C@](O)(c2cncc(-c3noc(C4(F)CCOCC4)n3)c2)C2(C)CN(C)C2)cc1 [Example 124]	35.9	–
CC(C)c1ccc([C@](O)(c2cncc(-c3noc([C@H]4C[C@@H](C)O[C@@H](C)C4)n3)c2)C2(C)CN(C)C2)cc1 [Example 125]	46.9	–
CC(C)c1ccc([C@](O)(c2cncc(-c3noc(COC4CCOCC4)n3)c2)C2(C)CN(C)C2)cc1 [Example 126]	84.9	–
CC(C)c1ccc([C@](O)(c2cncc(-c3noc(C(C)(C)C4CCOCC4)n3)c2)C2(C)CN(C)C2)cc1 [Example 127]	32.4	–
CC(C)c1ccc([C@](O)(c2cncc(-c3noc(CCC4CCOCC4)n3)c2)C2(C)CN(C)C2)cc1 [Example 128]	40.3	–
CC(C)c1ccc([C@](O)(c2cncc(-c3noc(C4(O)CCC4)n3)c2)C2(C)CN(C)C2)cc1 [Example 129]	35.9	–
CC(C)c1ccc([C@](O)(c2cncc(-c3noc(CC(C)(C)O)n3)c2)C2(C)CN(C)C2)cc1 [Example 130]	74.7	–
CC(C)c1ccc([C@](O)(c2cncc(-c3noc(C4CC5CCC4O5)n3)c2)C2(C)CN(C)C2)cc1 (stereo partly drawn) [Example 131]	60.8	–
CC(C)c1ccc([C@](O)(c2cncc(-c3noc(COC4(C)CCOCC4)n3)c2)C2(C)CN(C)C2)cc1 [Example 132]	50.1	–
CC(C)c1ccc([C@](O)(c2cncc(-c3noc(C4COC4)n3)c2)C2(C)CN(C)C2)cc1 [Example 133]	74.5	–
COCC(C)(C)c1nc(-c2cncc([C@@](O)(c3ccc(C(C)C)cc3)C3(C)CN(C)C3)c2)no1 [Example 134, (R)-(1,3-Dimethyl-azetidin-3-yl)-(4-isopropyl-phenyl)-{5-[5-(2-methoxy-1,1-dimethyl-ethyl)-[1,2,4]oxadiazol-3-yl]-pyridin-3-yl}-methanol]	62	–
CC(C)c1ccc([C@](O)(c2cncc(-c3noc(C(C)(C)CO)n3)c2)C2(C)CN(C)C2)cc1 [Example 135]	74	–
COC(C)(C)Cc1nc(-c2cncc([C@@](O)(c3ccc(C(C)C)cc3)C3(C)CN(C)C3)c2)no1 [Example 136]	123	–
CC(C)c1ccc([C@](O)(c2cncc(-c3noc(CC4(O)CCC4)n3)c2)C2(C)CN(C)C2)cc1 [Example 137]	60.3	–
COCC1(Cc2nc(-c3cncc([C@@](O)(c4ccc(C(C)C)cc4)C4(C)CN(C)C4)c3)no2)CC1 [Example 138]	45.8	–
CC(C)c1ccc([C@](O)(c2cncc(-c3noc(CCn4cccn4)n3)c2)C2(C)CN(C)C2)cc1 [Example 139, (R)-(1,3-Dimethyl-azetidin-3-yl)-(4-isopropyl-phenyl)-{5-[5-(2-pyrazol-1-yl-ethyl)-[1,2,4]oxadiazol-3-yl]-pyridin-3-yl}-methanol]	66.6	–
[2H]C([2H])([2H])C(=O)NCCc1nc(-c2cncc([C@@](O)(c3ccc(C(C)C)cc3)C3(C)CN(C)C3)c2)no1 [Example 140, (R)—N-(2-(3-(5-((1,3-dimethylazetidin-3-yl)(hydroxy)(4-isopropylphenyl)methyl)pyridin-3-yl)-1,2,4-oxadiazol-5-yl)ethyl)acetamide-2,2,2-d3]	681	–
[2H]C([2H])([2H])C(=O)NC(C)(C)Cc1nc(-c2cncc([C@@](O)(c3ccc(C(C)C)cc3)C3(C)CN(C)C3)c2)no1 [Example 141]	211	–
CC(C)c1ccc([C@](O)(c2cncc(-c3noc(C4CCN(C(=O)CO)CC4)n3)c2)C2(C)CN(C)C2)cc1 [Example 142]	274	–
[2H]C([2H])([2H])C(=O)N1CCC(c2nc(-c3cncc([C@@](O)(c4ccc(C(C)C)cc4)C4(C)CN(C)C4)c3)no2)CC1 [Example 143]	188	–

SMILES	IC50 (read-out: FLIPR IC50) [nM]	IC50 (FLIPR IC50 (nM)) [nM]
CC(C)c1ccc([C@](O)(c2cncc(-c3noc(CCN(C)C(=O)CO)n3)c2)C2(C)CN(C)C2)cc1 [Example 144, N-[2-(3-{5-[(R)-(1,3-Dimethyl-azetidin-3-yl)-hydroxy-(4-isopropyl-phenyl)-methyl]-pyridin-3-yl}-[1,2,4]oxadiazol-5-yl)-ethyl]-2-hydroxy-N-methyl-acetamide]	376	–
[2H]C([2H])([2H])C(=O)N(C)CCc1nc(-c2cncc([C@@](O)(c3ccc(C(C)C)cc3)C3(C)CN(C)C3)c2)no1 [Example 145, (R)—N-(2-(3-(5-((1,3-dimethylazetidin-3-yl)(hydroxy)(4-isopropylphenyl)methyl)pyridin-3-yl)-1,2,4-oxadiazol-5-yl)-ethyl)-N-methylacetamide-d3]	274	–
COc1ccc(C(O)(c2ccc(OC(F)(F)F)cc2)C2(C)CN(C)C2)cn1 (stereo not drawn) [Example 146, (1,3-Dimethyl-azetidin-3-yl)-(6-methoxy-pyridin-3-yl)-(4-trifluoromethoxy-phenyl)-methanol]	309	–
CN1CC(C)(C(O)(c2ccc(OC(F)(F)F)cc2)c2ccc(Oc3ccccc3)nc2)C1 (stereo not drawn) [Example 147]	63.5	–
CCCc1ccc(C(O)(c2cncc(N3CCCC3)c2)C2(C)CN(C)C2)cc1 (stereo not drawn) [Example 150, (1,3-Dimethyl-azetidin-3-yl)-(4-propyl-phenyl)-(5-pyrrolidin-1-yl-pyridin-3-yl)-methanol]	35.8	–
COc1ccc(C(O)(c2cncc(N3CCCC3)c2)C2(C)CN(C)C2)cc1 (stereo not drawn) [Example 151]	336	–
CCc1ccc(C(O)(c2cncc(N3CCCC3)c2)C2(C)CN(C)C2)cc1 (stereo not drawn) [Example 152]	60.2	–
CN1CC(C)(C(O)(c2ccccc2)c2cncc(N3CCCC3)c2)C1 (stereo not drawn) [Example 153]	214	–
CN1CC(C)(C(O)(c2ccc(C3CCC3)cc2)c2cncc(N3CCCC3)c2)C1 (stereo not drawn) [Example 154]	36.8	–
CN1CC(C)(C(O)(c2ccc(OC3CCC3)cc2)c2cncc(N3CCCC3)c2)C1 (stereo not drawn) [Example 155]	28	–
CCOc1ccc(C(O)(c2cncc(N3CCCC3)c2)C2(C)CN(C)C2)cc1 (stereo not drawn) [Example 156]	147	–
CN1CC(C)(C(O)(c2ccc(C(C)(C)C)cc2)c2cncc(N3CCCC3)c2)C1 (stereo not drawn) [Example 157]	–	27.7
CC(C)Oc1ccc(C(O)(c2cncc(N3CCCC3)c2)C2(C)CN(C)C2)cc1 (stereo not drawn) [Example 158]	222	–
CN1CC(C)(C(O)(c2ccc(C3(C(F)(F)F)CC3)cc2)c2cncc(N3CCCC3)c2)C1 (stereo not drawn) [Example 159]	91.6	–
CN1CC(C)(C(O)(c2ccc(C3(C)CC3)cc2)c2cncc(N3CCCC3)c2)C1 (stereo not drawn) [Example 160]	82.9	–
CN1CC(C)(C(O)(c2ccc(OC3CC3)cc2)c2cncc(N3CCCC3)c2)C1 (stereo not drawn) [Example 161]	202	–
CC(C)c1ccc([C@](O)(c2ccnc(N3CCC(F)(F)C3)c2)C2(C)CN(C)C2)cc1 [Example 162, (S)-[2-(3,3-Difluoro-pyrrolidin-1-yl)-pyridin-4-yl]-(1,3-dimethyl-azetidin-3-yl)-(4-isopropyl-phenyl)-methanol]	43.4	–
CC(C)c1ccc([C@](O)(c2ccnc(N3C[C@@H](F)[C@@H](F)C3)c2)C2(C)CN(C)C2)cc1 [Example 163, (S)-[2-((3R,4S)-3,4-Difluoro-pyrrolidin-1-yl)-pyridin-4-yl]-(1,3-dimethyl-azetidin-3-yl)-(4-isopropyl-phenyl)-methanol]	24.6	–
CC(C)COc1cc([C@@](O)(c2ccc(C(C)C)cc2)C2(C)CN(C)C2)ccn1 [Example 164, (S)-(1,3-Dimethyl-azetidin-3-yl)-(2-isobutoxy-pyridin-4-yl)-(4-isopropyl-phenyl)-methanol]	18.9	–
CC(C)c1ccc([C@](O)(c2ccnc(CCC(C)(C)O)c2)C2(C)CN(C)C2)cc1 [Example 165, 4-{4-[(S)-(1,3-Dimethyl-azetidin-3-yl)-hydroxy-(4-isopropyl-phenyl)-methyl]-pyridin-2-yl}-2-methyl-butan-2-ol]	677	–
CC(C)c1ccc([C@](O)(c2cnnc(N3CCC(F)(F)C3)c2)C2(C)CN(C)C2)cc1 [Example 166, (R)-[6-(3,3-Difluoro-pyrrolidin-1-yl)-pyridazin-4-yl]-(1,3-dimethyl-azetidin-3-yl)-(4-isopropyl-phenyl)-methanol]	85.3	–
CC(C)c1ccc([C@](O)(c2cncc(N3CC[C@H](CO)C3)c2)C2(C)CN(C)C2)cc1 [Example 170]	133	–
CC(C)c1ccc([C@](O)(c2cncc(N3CCC(O)(C4CC4)C3)c2)C2(C)CN(C)C2)cc1 (stereo partly drawn) [Example 173]	77.9	–
CC(C)c1ccc([C@](O)(c2cncc(N3CCCCC3)c2)C2(C)CN(C)C2)cc1 [Example 176]	39.2	–
CC(C)c1ccc([C@](O)(c2cncc(N3C4CCC3CC4)c2)C2(C)CN(C)C2)cc1 [Example 177]	–	284
